We go through 24 compounds from patent US11440913B2, “Aminoimidazopyridazines as kinase inhibitors” (BRISTOL-MYERS SQUIBB COMPANY, priority 2017, dated 2022).

Counter-ions that a name gives are not always drawn. Like-named read-outs stand apart in the source and are kept apart here.

In test [1] the target is His-GST-TVMV-hRIPK1(1-324) (Homo sapiens (Human), UniProt Q13546). Kind of test: RIPK1 HTRF Binding Assay. The note with it: HTRF binding, 1 h at rt; read-out: RIPK1 (IC50). In short, it runs like this:
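HTRF probe-displacement binding: 1 nM His-GST-TVMV-hRIPK1(1-324) (baculovirus construct), 90.6 nM probe, 0.2 nM anti-GST-Tb in 20 mM HEPES, 10 mM MgCl2, 0.015% Brij-35, 4 mM DTT, 0.05 mg/mL BSA. Incubated 1 h at rt; FRET 520/495 nm ratio, inhibition relative to DMSO-only wells.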

Test [2] concerns MLKL phosphorylation in HT29-L23 human colorectal adenocarcinoma cells. Kind of test: MLKL Phosphorylation High-Content Assay. As to conditions: 6 h, necroptosis induced with TNFα, SMAC mimetic and Z-VAD, read-out: pMLKL (IC50). The format is cell-based. In short, it runs like this: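 HT29-L23 cells pretreated 30 min at 37 °C with compound (6.25 to 0.106 μM final), then necroptosis induced with TNFα 35 ng/mL, SMAC mimetic 700 nM and Z-VAD 140 nM for 6 h. Fixed cells immunostained for MLKL pS358 and imaged; IC50 and Ymax from 4-parameter logistic fit.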

His-GST-TVMV-hRIPK1(1-324), sequence (Q13546 1-324): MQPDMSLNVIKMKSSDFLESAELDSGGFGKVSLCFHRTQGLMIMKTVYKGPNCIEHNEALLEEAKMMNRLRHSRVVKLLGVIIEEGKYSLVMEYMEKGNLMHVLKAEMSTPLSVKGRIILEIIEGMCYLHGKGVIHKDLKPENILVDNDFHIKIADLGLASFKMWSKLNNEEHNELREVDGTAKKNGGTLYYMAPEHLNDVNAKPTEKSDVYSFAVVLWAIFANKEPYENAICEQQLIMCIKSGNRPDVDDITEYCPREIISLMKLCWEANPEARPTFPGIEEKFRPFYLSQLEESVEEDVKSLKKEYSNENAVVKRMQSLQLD

Broadly, the IC50 is the concentration that gives 50% inhibition. For `COc1nc(C)c(-c2ccc3nc(NC(C)=O)cn3n2)cc1C(=O)NCc1cccc(F)c1OCC1CCC1` [Example 288, N-{[2-(cyclobutylmethoxy)-3-fluorophenyl]methyl}-5-{2-acetamidoimidazo[1,2-b]pyridazin-6-yl}-2-methoxy-6-methylpyridine-3-carboxamide], the figures for the IC50 in test [1] and in test [2] (Homo sapiens) were 6 nM and 1 nM, respectively.

As for `COc1nc(C)c(-c2ccc3nc(NC(C)=O)cn3n2)cc1C(=O)NC(C)c1cccc(OC(F)(F)F)c1` (stereo not drawn) [Example 289, 5-{2-acetamidoimidazo[1,2-b]pyridazin-6-yl}-2-methoxy-6-methyl-N-{1-[3-(trifluoromethoxy)phenyl]ethyl}pyridine-3-carboxamide], the IC50 in test [1] and in test [2] was 16 nM each time.

Regarding `COc1nc(C)c(-c2ccc3nc(NC(C)=O)cn3n2)cc1C(=O)NC(C)c1ccccc1OC(F)(F)F` (stereo not drawn) [Example 290, 5-{2-acetamidoimidazo[1,2-b]pyridazin-6-yl}-2-methoxy-6-methyl-N-{1-[2-(trifluoromethoxy)phenyl]ethyl}pyridine-3-carboxamide], the figures for the IC50 in test [1] and in test [2] were 7 nM and 3 nM, respectively.

For the compound `COc1nc(C)c(-c2ccc3nc(NC(C)=O)cn3n2)cc1C(=O)NC(C)c1ccccc1OC(F)(F)F` (stereo not drawn) [Example 291, 5-{2-acetamidoimidazo[1,2-b]pyridazin-6-yl}-2-methoxy-6-methyl-N-{1-[2-(trifluoromethoxy)phenyl]ethyl}pyridine-3-carboxamide], the figures for the IC50 in test [1] and in test [2] were more than 5000 nM and more than 6250 nM, respectively.

As to `COc1nc(C)c(-c2ccc3nc(NC(C)=O)cn3n2)cc1C(=O)NC(C)c1cccc(OC(F)(F)F)c1` (stereo not drawn) [Example 292, 5-{2-acetamidoimidazo[1,2-b]pyridazin-6-yl}-2-methoxy-6-methyl-N-{1-[3-(trifluoromethoxy)phenyl]ethyl}pyridine-3-carboxamide], the IC50 in test [1] was 24 nM; in test [2] it was 37 nM.

On to `COc1nc(C)c(-c2ccc3nc(NC(C)=O)cn3n2)cc1C(=O)NCc1cc(F)cc(C(F)(F)F)c1` [Example 293, 5-{2-acetamidoimidazo[1,2-b]pyridazin-6-yl}-N-{[3-fluoro-5-(trifluoromethyl)phenyl]methyl}-2-methoxy-6-methylpyridine-3-carboxamide], for which the IC50 in test [1] came out at 33 nM; in test [2] (Homo sapiens), 135 nM.

Turning to `COc1nc(C)c(-c2ccc3nc(NC(C)=O)cn3n2)cc1C(=O)NCc1cc(F)cc(F)c1OCC1CCC1` [Example 294, N-{[2-(cyclobutylmethoxy)-3,5-difluorophenyl]methyl}-5-{2-acetamidoimidazo[1,2-b]pyridazin-6-yl}-2-methoxy-6-methylpyridine-3-carboxamide], the IC50 in test [1] came out at 10 nM; in test [2] (Homo sapiens) it was 3 nM.

On to `COc1nc(C)c(-c2ccc3nc(NC(C)=O)cn3n2)cc1C(=O)NCc1cc(C(F)(F)F)ccc1F` [Example 296, 5-{2-acetamidoimidazo[1,2-b]pyridazin-6-yl}-N-{[2-fluoro-5-(trifluoromethyl)phenyl]methyl}-2-methoxy-6-methylpyridine-3-carboxamide], for which the IC50 was 10 nM in test [1] and 20 nM in test [2] (Homo sapiens).

With `COc1nc(C)c(-c2ccc3nc(NC(C)=O)cn3n2)cc1C(=O)NCc1cc(OCC2CC2)ccc1F` [Example 297, N-{[5-(cyclopropylmethoxy)-2-fluorophenyl]methyl}-5-{2-acetamidoimidazo[1,2-b]pyridazin-6-yl}-2-methoxy-6-methylpyridine-3-carboxamide], the IC50 in test [1] was 11 nM; in test [2] (Homo sapiens), 36 nM.

`COc1nc(C)c(-c2ccc3nc(NC(C)=O)cn3n2)cc1C(=O)NCc1c(F)cc(F)cc1OCC1CC1` [Example 298, N-{[2-(cyclopropylmethoxy)-4,6-difluorophenyl]methyl}-5-{2-acetamidoimidazo[1,2-b]pyridazin-6-yl}-2-methoxy-6-methylpyridine-3-carboxamide]: the results for the IC50 in test [1] and in test [2] (Homo sapiens) were 43 nM and 79 nM, respectively.

For `COc1nc(C)c(-c2ccc3nc(NC(C)=O)cn3n2)cc1C(=O)NCc1cccc(F)c1OCC1CC1` [Example 299, N-{[2-(cyclopropylmethoxy)-3-fluorophenyl]methyl}-5-{2-acetamidoimidazo[1,2-b]pyridazin-6-yl}-2-methoxy-6-methylpyridine-3-carboxamide], the values for the IC50 in test [1] and in test [2] (Homo sapiens) were 4 nM and 1 nM, respectively.

With `COc1nc(C)c(-c2ccc3nc(NC(C)=O)cn3n2)cc1C(=O)NCc1cc(F)cc(F)c1OCC1CC1` [Example 300, N-{[2-(cyclopropylmethoxy)-3,5-difluorophenyl]methyl}-5-{2-acetamidoimidazo[1,2-b]pyridazin-6-yl}-2-methoxy-6-methylpyridine-3-carboxamide], the values for the IC50 in test [1] and in test [2] (Homo sapiens) were 4 nM and 76 nM, respectively.

Turning to `COc1nc(C)c(-c2ccc3nc(NC(C)=O)cn3n2)cc1C(=O)NCC[C@H](O)c1ccc(Cl)cc1` [Example 301, N-[(3S)-3-(4-chlorophenyl)-3-hydroxypropyl]-5-{2-acetamidoimidazo[1,2-b]pyridazin-6-yl}-2-methoxy-6-methylpyridine-3-carboxamide], the IC50 in test [1] is 25 nM; in test [2] (Homo sapiens), 22 nM.

With `COc1nc(C)c(-c2ccc3nc(NC(C)=O)cn3n2)cc1C(=O)NCc1ccccc1OC(C)C1CCCC1` (stereo not drawn) [Example 302, N-{[2-(1-cyclopentylethoxy)phenyl]methyl}-5-{2-acetamidoimidazo[1,2-b]pyridazin-6-yl}-2-methoxy-6-methylpyridine-3-carboxamide], the IC50 in test [1] was 25 nM; in test [2], 16 nM.

`COc1nc(C)c(-c2ccc3nc(NC(C)=O)cn3n2)cc1C(=O)NCc1ccccc1OC(C)C1CCCC1` (stereo not drawn) [Example 303, N-{[2-(1-cyclopentylethoxy)phenyl]methyl}-5-{2-acetamidoimidazo[1,2-b]pyridazin-6-yl}-2-methoxy-6-methylpyridine-3-carboxamide]: the IC50 in test [1] is 22 nM; in test [2], 43 nM.

With `COc1nc(C)c(-c2ccc3nc(NC(C)=O)cn3n2)cc1C(=O)NCCc1cccc(OC(F)(F)F)c1` [Example 304, 5-{2-acetamidoimidazo[1,2-b]pyridazin-6-yl}-2-methoxy-6-methyl-N-{2-[3-(trifluoromethoxy)phenyl]ethyl}pyridine-3-carboxamide], the IC50 in test [1] was determined as 206 nM; in test [2] (Homo sapiens), 67 nM.

Regarding `COc1nc(C)c(-c2ccc3nc(NC(C)=O)cn3n2)cc1C(=O)NCc1cccc(C(F)(F)F)c1` [Example 305, 5-{2-acetamidoimidazo[1,2-b]pyridazin-6-yl}-2-methoxy-6-methyl-N-{[3-(trifluoromethyl)phenyl]methyl}pyridine-3-carboxamide], the half-inhibitory concentration (IC50) in test [1] was 41 nM; in test [2] (Homo sapiens), 77 nM.

As for `COc1nc(C)c(-c2ccc3nc(NC(C)=O)cn3n2)cc1C(=O)NCc1ccccc1OC1CCOC1` (stereo not drawn) [Example 306, 5-{2-acetamidoimidazo[1,2-b]pyridazin-6-yl}-2-methoxy-6-methyl-N-{[2-(oxolan-3-yloxy)phenyl]methyl}pyridine-3-carboxamide], the values for the IC50 in test [1] and in test [2] (Homo sapiens) were 5 nM and 6 nM, respectively.

For the compound `COc1nc(C)c(-c2ccc3nc(NC(C)=O)cn3n2)cc1C(=O)NCc1ccccc1OC1CCOC1` (stereo not drawn) [Example 307, 5-{2-acetamidoimidazo[1,2-b]pyridazin-6-yl}-2-methoxy-6-methyl-N-{[2-(oxolan-3-yloxy)phenyl]methyl}pyridine-3-carboxamide], the IC50 stood at 11 nM in test [1] and 5 nM in test [2].

For `COc1nc(C)c(-c2ccc3nc(NC(C)=O)cn3n2)cc1C(=O)NCc1c(F)cc(F)cc1OCC1CCCC1` [Example 308, N-{[2-(cyclopentylmethoxy)-4,6-difluorophenyl]methyl}-5-{2-acetamidoimidazo[1,2-b]pyridazin-6-yl}-2-methoxy-6-methylpyridine-3-carboxamide], the 50% inhibitory concentration (IC50) came out at 8 nM in test [1] and 11 nM in test [2] (Homo sapiens).

Regarding `COc1nc(C)c(-c2ccc3nc(NC(C)=O)cn3n2)cc1C(=O)NCc1cccc(OCC2CC2)c1` [Example 309, N-{[3-(cyclopropylmethoxy)phenyl]methyl}-5-{2-acetamidoimidazo[1,2-b]pyridazin-6-yl}-2-methoxy-6-methylpyridine-3-carboxamide], the IC50 in test [1] was determined as 19 nM; in test [2] (Homo sapiens), 46 nM.

Regarding `COc1nc(C)c(-c2ccc3nc(NC(C)=O)cn3n2)cc1C(=O)NCc1ccccc1OCC1CCC(F)(F)CC1` [Example 310, N-({2-[(4,4-difluorocyclohexyl)methoxy]phenyl}methyl)-5-{2-acetamidoimidazo[1,2-b]pyridazin-6-yl}-2-methoxy-6-methylpyridine-3-carboxamide], the values for the IC50 in test [1] and in test [2] (Homo sapiens) were 21 nM and 125 nM, respectively.

As for `COc1nc(C)c(-c2ccc3nc(NC(C)=O)cn3n2)cc1C(=O)NCc1cc(OC(F)(F)F)ccc1F` [Example 311, 5-{2-acetamidoimidazo[1,2-b]pyridazin-6-yl}-N-{[2-fluoro-5-(trifluoromethoxy)phenyl]methyl}-2-methoxy-6-methylpyridine-3-carboxamide, TFA], the IC50 in test [1] came out at 6 nM; in test [2], 4 nM.

For the compound `COc1nc(C)c(-c2ccc3nc(NC(C)=O)cn3n2)cc1C(=O)NCc1ncccc1OCC1CCCC1` [Example 312, N-{[3-(cyclopentylmethoxy)pyridin-2-yl]methyl}-5-{2-acetamidoimidazo[1,2-b]pyridazin-6-yl}-2-methoxy-6-methylpyridine-3-carboxamide, 2 TFA], the values for the IC50 in test [1] and in test [2] were 7 nM and 38 nM, respectively.
